Consider six molecules from patent US20230138047A1, “ANTI-CLAUDIN-1 MONOCLONAL ANTIBODIES FOR THE PREVENTION AND TREATMENT OF FIBROTIC DISEASES” (Université de Strasbourg, priority 2019, published 2023).

Structures can show the parent of a compound that is named as a salt.

For orientation: Kd means the constant that tells how readily two partners part at equilibrium. High values mean a looser complex, low ones a tighter complex.

Data set [1] has as its system UUO-induced renal interstitial fibrosis. The data set can be described thus: Unilateral ureteral obstruction (UUO)-induced renal interstitial fibrosis. The data set is classed as in vivo. How it is done:
Test Substances. A murinized version of an anti CLDN1 mAb was synthetized at the Inventors' laboratory and used in the present study. […] To prepare dosing solution, the anti-CLDN1 mAb was diluted with a saline solution used as vehicle. Telmisartan (Micardis®) was purchased from Boehringer Ingelheim GmbH (Germany) and dissolved in pure water.
Unilateral Ureteral Obstruction (UUO) Surgery. On Day 0, UUO surgery was performed under three types of mixed anesthetic agents (medetomidine, midazolam, butorphanol). After shaving the hair, the abdomen was cut open and the left ureter was exteriorized. The ureter was ligated by 4-0 silk sutures at two points. The peritoneum and the skin were closed with sutures, and the mice were transferred to a clean cage and kept until recovery from anesthesia.
Route of Drug Administration. The anti-CLDN1 mAb was administered intraperitoneally at a volume of 100 μL/mouse. Telmisartan was administered orally at a volume of 10 μL/mouse.
Treatment Doses. The anti-CLDN1 mAb was administered at a dose of 500 μg/100 μL/mouse. Telmisartan was administered at a dose of 30 mg/kg once daily.
Animals. Seven-week-old female C57BL/6J mice were obtained from Japan SLC, Inc. (Japan). Animals were housed and fed with a normal diet (CE-2; CLEA Japan, Japan) under controlled conditions. All animals used in the study were housed and cared for in accordance with the Japanese Pharmacological Society Guidelines for Animal Use. The animals were maintained in a SPF facility under controlled conditions of temperature (23±3° C.), humidity (50±20%), lighting (12-hour artificial light and dark cycles; light from 8:00 to 20:00) and air exchange. A high pressure was maintained in the experimental room to prevent contamination of the facility. The animals were housed in TPX cages (CLEA Japan) with a maximum of 4 mice per cage. Sterilized Paper-Clean (Japan SLC) was used for bedding and replaced once a week.
Measurement of Plasma Biochemistry. For plasma biochemistry, non-fasting blood was collected in polypropylene tubes with anticoagulant (Novo-Heparin, Mochida Pharmaceutical Co. Ltd., Japan) and centrifuged at 1,000×g for 15 minutes at 4° C. The supernatant was collected and stored at −80° C. until use. Plasma urea nitrogen was measured by FUJI DRI-CHEM 7000 (Fujifilm, Japan).
Measurement of Kidney Biochemistry. To quantify kidney hydroxyproline content, frozen left kidney samples were processed by an alkaline-acid hydrolysis method as follows. Kidney samples were dissolved in 2N NaOH at 65° C., and autoclaved at 121° C. for 20 minutes. The lysed samples (150 μL) were acid-hydrolyzed with 150 μL of 6N HCl at 121° C. for 20 minutes, and neutralized with 150 μL of 4N NaOH containing 10 mg/mL activated carbon. AC buffer (2.2M acetic acid/0.48M citric acid, 150 μL) was added to the samples, followed by centrifugation to collect the supernatant. A standard curve of hydroxyproline was constructed with serial dilutions of trans-4-hydroxy-L-proline (Sigma-Aldrich, USA) starting at 16 μg/mL. The prepared samples and standards (each 400 μL) were mixed with 400 μL chloramine T solution (Nacalai Tesque Inc., Japan) and incubated for 25 minutes at room temperature. The samples were then mixed with Ehrlich's solution (400 μL) and heated at 65° C. for 20 minutes for color development. After samples were cooled on ice and centrifuged to remove precipitates, the optical density of each supernatant was measured at 560 nm. The concentrations of hydroxyproline were calculated from the hydroxyproline standard curve. Protein concentrations of kidney samples were determined using a BCA protein assay kit (Thermo Fisher Scientific, USA) and used to normalize the calculated hydroxyproline values. Kidney hydroxyproline contents were expressed as μg per mg protein.
Histopathological Analyses. For PAS staining, sections were cut from paraffin blocks and stained with Schiff's reagent (Wako Pure Chemical Industries) according to the manufacturer's instructions. […]

Data set [2] relates to BLM-induced skin fibrosis. The data set can be described thus: Bleomycin-induced skin fibrosis model. The format is in vivo, mouse. The conditions noted are these: 50 mg/kg i.p., BLM for 4 weeks. From the text:
BLM Model and Sampling. As indicated on the scheme presented on FIG. 6, the BLM is subcutaneously injected every other day into the pre-shaved back of mice for 4 weeks. The injection sites are located at the corners of a 1.5 cm^2-square shaved area and used in rotation (corner 1, corner 2, corner 3, corner 4, corner 1, etc). A 5-mm circle is clipped using a dermal punch and used for collagen quantification. The remaining intact area is cut out into 3 rectangles, one for histology and two for biochemical analyses.
Effects of Imatinib on Skin Fibrosis. Imatinib mesylate is a tyrosine kinase inhibitor against c-Abl, PDGFR, and several other tyrosine kinases (Alfiya et al., Arthritis Rheum., 2009, 60: 219). c-Abl is crucial for induction of ECM proteins through the TGF-β pathway. Its inhibition may reduce the synthesis of EMC components. Imatinib interferes with PDGF signalling by blocking the tyrosine kinase activity of PDGFR (Alfiya et al., Arthritis Rheum., 2009, 60: 219). The study design is presented on FIG. 7.

In data set [3] the test system is bleomycin-induced pulmonary fibrosis. As for the experimental part:
Materials and Methods Protocol to Examine the Effects of an anti-human CLDN1 Monoclonal Antibody in Preventing Fibrosis in a Bleomycin-Induced Pulmonary Fibrosis Model. Pathogen-free 6 weeks old female C57BL/6Jmice were obtained from Japan SLC, Inc. (Japan). At Day 0, 54 mice were induced to develop pulmonary fibrosis by a single intratracheal administration of bleomycin hydrochloride (BLM, Nippon Kayaku, Japan) in saline at a dose of 3.0 mg/kg, in a volume of 50 μL per animal using Microsprayer® (Penn-Century, USA). In each slot, the mice were randomized into 3 groups of 18 mice based on their body weight on the day before the start of treatment at Day 0. Individual body weights were measured daily during the experimental period. Survival, clinical signs and behaviour of mice were monitored daily.
Mice groups. Group 1 (Vehicle): Eighteen bleomycin-induced pulmonary fibrosis model mice were intraperitoneally administered vehicle [Saline] in a volume of […] once weekly from Day 0 to 20. […] Group 3 (Dexamethasone): Eighteen bleomycin-induced pulmonary fibrosis model mice were orally administered pure water supplemented with Dexamethasone at a dose of 0.25 mg/kg (in a volume of 10 mL/kg) once daily from Day 0 to 20. Mice in all groups were sacrificed at Day 21.
Survival, biochemical and histological analysis. […]

Data set [4] shares this test system. Put plainly: Bleomycin-induced pulmonary fibrosis model, late treatment (Day 7 to 20). The format is in vivo, C57BL/6J mice. Conditions: mean±SD, Day 21. The text has this:
Protocol to Examine the Effects of anti-human CLDN1 Monoclonal Antibody in Treating Fibrosis in a Bleomycin-Induced Pulmonary Fibrosis Model. Pathogen-free 6 weeks old female C57BL/6Jmice will be obtained from Japan SLC, Inc. (Japan). […] The mice were transferred to a clean cage (resting cage) and kept until recovery from anesthesia. The bleomycin administration took place on two separate days, with equal numbers of mice assigned to each day. […] Mice groups. […] Survival, biochemical and histological analysis. […] Lung hydroxyproline content was assessed according to a routine method. Statistical tests. Statistical tests were performed using Kruskal-Wallis test.

Data set [5] concerns the target T1, human Claudin-1 (CLDN1) (human, UniProt O95832 1-211).
T1 construct: whole, on cells; Tight junction membrane protein; endogenously expressed on the cell lines, primary cells and tissues used; also called CLDNA
T1 sequence (looked up): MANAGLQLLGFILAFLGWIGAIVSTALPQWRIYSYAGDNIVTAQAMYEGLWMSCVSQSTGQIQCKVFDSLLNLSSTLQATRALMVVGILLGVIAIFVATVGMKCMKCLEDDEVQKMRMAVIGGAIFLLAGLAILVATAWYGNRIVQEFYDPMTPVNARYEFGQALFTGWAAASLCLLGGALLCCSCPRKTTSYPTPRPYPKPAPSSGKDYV
The data set can be described thus: flow cytometry on A549 lung cells, PE median fluorescence, Michaelis-Menten fit. How it is done: (§1) FIG. 4. Binding Properties of Humanized CLDN1-specific MAbs Targeting CLDN1 Expressed on Kidney RPTEC/TERT1 and Lung A549 Cell Lines. Cells were incubated with increasing concentrations of humanized H3L3 CLDN1-specific mAb, as indicated. Representative histograms show binding of humanized H3L3 CLDN1-specific mAb at the saturation point for each specific cells line: (A) RPTEC/TERT1 (50 μg/mL) and (B) A549 (20 μg/mL). Binding was measured by flow cytometry after incubation with PE-labelled anti-human and analyzed with Cytoflex and FlowJo V10. […] The graphs show binding of humanized H3L3 CLDN1-specific mAb until the saturation point for each specific cell line.
(§2) Binding Studies. Cells were de-attached using a solution of EDTA (4 mM) and re-suspended in PBS containing 1% FBS at 4° C. Then, 150,000 cells were incubated with increasing concentrations of the humanized H3L3 CLDN1-specific mAb (see WO/2017/162678) and the binding signals were read by flow cytometry after incubation with PE-labelled anti-human using a dilution of 1:100 and analyzed with Cytoflex and FlowJo V10. Two washes with PBS containing 1% FBS were performed after every antibody incubation. A binding curve for each cell line was built using the PE median fluorescence intensity (MFI) and the Kd of the interaction was calculated by applying the Michaelis-Menten mathematical model in R 3.5.1.
For orientation: Flow cytometry measures light scatter and fluorescence of single cells or particles in a stream.

Data set [6] has as its target T1, human Claudin-1 (CLDN1). The data set can be described thus: flow cytometry on RPTEC/TERT1 kidney cells, PE median fluorescence, Michaelis-Menten fit. How it is done: as §1, §2
Data set [7] in a line: Antibody biodistribution in mice (Alexa-fluor 750 label, ex vivo organ fluorescence). The conditions noted are these: 500 μg i.p.; organs harvested at 24 hours and 48 hours. Details: species or system Balb/c mice. How it is done: Reagents and Antibodies. The anti-Claudin-1 monoclonal antibody (anti-CLDN1 mAb-OM-7D3-B3) was produced as previously described (Fofana et al., Gastroenterology, 2010, 139: 953-964, e1-4). Control mAb (rat IgG2b clone LTF-25, Bio X Cell) was also used.
Antibody biodistribution. The antibodies were labeled with Alexa-fluor 750 (RD-Biotech, Besangon, France). Eight week-old Balb/c mice were injected intraperitoneally with 500 μg of Alexa-fluor 750-labeled CLDN1-specific or control mAb. Organs were harvested 24 hours and 48 hours as previously described (Krieger et al., Hepatology, 2010, 51: 1144-1157) and ex vivo organ-specific fluorescence was detected with an IVIS Lumina 50 (Xenogen-Caliper-Perkin-Elmer) and expressed as average efficiency.
Statistical Analyses. The Mann-Whitney test was used. A p-value <0.05 was considered significant. Statistical analyzes were performed with GraphPad Prism 6 software.

[8] abbreviates: kidney sections versus Vehicle group.

In turn, `CCCc1nc2c(C)cc(-c3nc4ccccc4n3C)cc2n1Cc1ccc(-c2ccccc2C(=O)O)cc1` [Telmisartan] returned a Sirius red-positive area in data set [1] (fibrosis area, mean ± S.D., n = 8) of 2.44 ± 1.19%. In data set [1] (setting [8]), the “inflammatory cell infiltration, F4/80 immunostaining” value is reported as “lower than that in the Vehicle group” and the “inflammatory cell infiltration, PAS staining” value is reported as “lower than in the Vehicle group”. In data set [1] (left kidney, mean ± S.D., n = 8), the Kidney hydroxyproline was found to be 6.19 ± 2.31 μg/mg total protein. In data set [1] (mean ± S.D., n = 8), the Right kidney weight is on record as 139 ± 9 mg. In data set [1] (mouse, in vivo), this molecule came in with a Body weight of 18.7 ± 1.1 g and a Plasma urea nitrogen of 33.9 ± 5.2 mg/dL. For the same molecule, in data set [1] (obstructed kidney, mean ± S.D., n = 8), the Left kidney weight worked out at 630 ± 160 mg.
For the molecule `Cc1ccc(NC(=O)c2ccc(CN3CCN(C)CC3)cc2)cc1Nc1nccc(-c2cccnc2)n1` [Imatinib, Imatinib mesylate], in data set [2] (HE staining), the dermal thickness entry is “significant decrease”. The skin fibrosis area result in data set [2] (Masson staining) is “significant decrease”.
`C[C@@H]1C[C@H]2[C@@H]3CCC4=CC(=O)C=C[C@]4(C)[C@@]3(F)[C@@H](O)C[C@]2(C)[C@@]1(O)C(=O)CO` [Dexamethasone]: the “mice found dead before reaching Day 21” value in data set [3] (18 mice per group) is given as “Ten out of 18”. In data set [3] (Kaplan-Meier, Log Rank Test), the “survival rate compared with Vehicle group” value is recorded as “significant decrease”.
`COC(=O)c1ccc2c(c1)NC(=O)/C2=C(\Nc1ccc(N(C)C(=O)CN2CCN(C)CC2)cc1)c1ccccc1` [Nintedanib] gave a lung hydroxyproline levels in data set [4] of 51.3±9.0.

B1: humanized H3L3 CLDN1-specific mAb (antibody, V domains shown)
VH: QVQLVESGGGVVQPGRSLRLSCLGSGFSFSSYGMNWVRQAPGKGLEWVASISPSGSYFYYADSVKGRFTISRDNSKNTLYLQMTSLRAEDTAIYYCARLPGFNPPFDHWGQGTLVTVSS
VL: DIQMTQSPSSLSASVGDRVTITCKASQNVGGNVDWYQWKPGKAPKLLIYGASNRYTGVPDRFRGSGSGTDFTLTISSLQPEDVATYYCLQYKNNPWTFGGGTKVEIK
notes: also called anti-CLDN1 mAb H3L3; humanized anti-CLDN1 mAb
On to B1, for which the values for the Kd in data set [5] and in data set [6] were 16.3 nM and 53 nM, respectively.

B2: OM-7D3-B3: rat monoclonal antibody against human Claudin-1 secreted by hybridoma DSM ACC2938; VH SEQ ID NO: 1, VL SEQ ID NO: 2 (antibody, V domains shown)
VH: EVQLVESGGGLVQPGRSLKLSCLGSGFSFSSYGMNWIRQAPGKGLEWVASISPSGSYFYYADSVKGRFTISRENAKNTLYLQMTSLRAEDTALYYCARLPGFNPPFDHWGQGVVVTVSS
VL: NTVMTQSPTSMFMSVGDRVTMNCKASQNVGGNVDWYQWKPGQSPKLLMYGASNRYTGVPDRFRGSGSGTDFTLTISNMQTEDLAVYYCLQYKNNPWTFGGGTKVELK
modifications: variable heavy chain of OM-7D3-B3; variable light chain of OM-7D3-B3
In the case of B2, the “organ enrichment of labeled antibody versus control mAb” value in data set [7] was “enrichment in the anti-CLDN1 monoclonal antibody was observed in skin, kidneys, lungs, intestines and liver”.
